Measurements from ChEMBL document CHEMBL5252541, “Repurposing antipsychotic drugs into antifungal agents: Synergistic combinations of azoles and bromperidol derivatives in the treatment of various fungal infections” (Eur J Med Chem, 2017).

Columns and labels:
Candida albicans [1] = test: Additive antifungal activity against Candida albicans ATCC 90819 assessed as fractional inhibitory concentration index measured for 72 hrs in presence of voriconazole; type: functional
Candida albicans [2] = test: Synergistic antifungal activity against Candida albicans ATCC 64124 assessed as compound MIC measured after 48 hrs in presence of posaconazole by checkboard based microplate reader analysis; type: functional
Candida albicans [3] = test: Potency index, ratio of fluconazole MIC to test compound MIC for antifungal activity against Candida albicans ATCC 10231 measured after 48 hrs by broth microdilution analysis; type: functional
Aspergillus terreus [4] = test: Additive antifungal activity against Aspergillus terreus ATCC MYA-3633 assessed as fractional inhibitory concentration index measured for 72 hrs in presence of voriconazole; type: functional
Candida albicans [5] = test: Additive antifungal activity against Candida albicans ATCC 64124 assessed as fractional inhibitory concentration index measured for 72 hrs in presence of fluconazole; type: functional
Candida albicans [6] = test: Antifungal activity against Candida albicans ATCC MYA-1237 measured after 48 hrs by broth microdilution analysis; type: functional
Candida albicans [7] = test: Additive antifungal activity against Candida albicans MYA-1003 assessed as fractional inhibitory concentration index measured for 72 hrs in presence of voriconazole
Candida albicans [8] = test: Additive antifungal activity against Candida albicans ATCC 10231 assessed as fractional inhibitory concentration index measured for 72 hrs in presence of itraconazole; type: functional
Candida albicans [9] = test: Antifungal activity against Candida albicans ATCC MYA-2310 measured after 48 hrs by broth microdilution analysis; type: functional
Candida albicans [10] = test: Synergistic antifungal activity against Candida albicans ATCC 10231 assessed as compound MIC measured after 48 hrs in presence of posaconazole by checkboard based microplate reader analysis; type: functional
Candida albicans [11] = test: Synergistic antifungal activity against Candida albicans ATCC 10231 assessed as compound MIC measured after 48 hrs in presence of ketoconazole by checkboard based microplate reader analysis; type: functional
Candida albicans [12] = test: Antifungal activity against Candida albicans ATCC 10231 measured after 48 hrs by broth microdilution analysis; type: functional
Candida albicans [13] = test: Synergistic antifungal activity against Candida albicans ATCC 10231 assessed as compound MIC measured after 48 hrs in presence of itraconazole by checkboard based microplate reader analysis; type: functional
Candida albicans [14] = test: Additive antifungal activity against Candida albicans ATCC 10231 assessed as fractional inhibitory concentration index measured for 72 hrs in presence of fluconazole; type: functional
Candida albicans [15] = test: Antifungal activity against Candida albicans ATCC MYA-2876 measured after 48 hrs by broth microdilution analysis; type: functional
Nakaseomyces glabratus [16] = test: Additive antifungal activity against Candida glabrata ATCC 2001 assessed as fractional inhibitory concentration index measured for 72 hrs in presence of voriconazole; type: functional
Candida albicans [17] = test: Synergistic antifungal activity against Candida albicans ATCC 64124 assessed as compound MIC measured after 48 hrs in presence of ketoconazole by checkboard based microplate reader analysis; type: functional
Candida albicans [18] = test: Synergistic antifungal activity against Candida albicans ATCC 64124 assessed as compound MIC measured after 48 hrs in presence of voriconazole by checkboard based microplate reader analysis; type: functional
Candida albicans [19] = test: Antifungal activity against Candida albicans ATCC 64124 measured after 48 hrs by broth microdilution analysis; type: functional
Candida albicans [20] = test: Antifungal activity against Candida albicans ATCC MYA-1003 measured after 48 hrs by broth microdilution analysis; type: functional
Candida albicans [21] = test: Synergistic antifungal activity against Candida albicans ATCC 64124 assessed as compound MIC measured after 48 hrs in presence of itraconazole by checkboard based microplate reader analysis; type: functional
Nakaseomyces glabratus [22] = test: Antifungal activity against Candida glabrata ATCC 2001 measured after 48 hrs by broth microdilution analysis; type: functional
Candida albicans [23] = test: Additive antifungal activity against Candida albicans ATCC MYA-2876 assessed as fractional inhibitory concentration index measured for 72 hrs in presence of posaconazole; type: functional
Candida albicans [24] = test: Additive antifungal activity against Candida albicans ATCC MYA-2310 assessed as fractional inhibitory concentration index measured for 72 hrs in presence of voriconazole; type: functional
Candida albicans [25] = test: Additive antifungal activity against Candida albicans ATCC MYA-1237 assessed as fractional inhibitory concentration index measured for 72 hrs in presence of voriconazole; type: functional
Candida albicans [26] = test: Synergistic antifungal activity against Candida albicans ATCC 64124 assessed as fractional inhibitory concentration index measured for 72 hrs in presence of posaconazole; type: functional
Candida albicans [27] = test: Additive antifungal activity against Candida albicans ATCC MYA-2310 assessed as fractional inhibitory concentration index measured for 72 hrs in presence of posaconazole; type: functional
Candida albicans [28] = test: Additive antifungal activity against Candida albicans ATCC 64124 assessed as fractional inhibitory concentration index measured for 72 hrs in presence of voriconazole; type: functional
Candida albicans [29] = test: Additive antifungal activity against Candida albicans ATCC 90819 assessed as fractional inhibitory concentration index measured for 72 hrs in presence of posaconazole; type: functional
Candida albicans [30] = test: Additive antifungal activity against Candida albicans ATCC 64124 assessed as fractional inhibitory concentration index measured for 72 hrs in presence of itraconazole; type: functional
Candida albicans [31] = test: Additive antifungal activity against Candida albicans ATCC MYA-1237 assessed as fractional inhibitory concentration index measured for 72 hrs in presence of posaconazole; type: functional
Candida albicans [32] = test: Additive antifungal activity against Candida albicans ATCC 64124 assessed as fractional inhibitory concentration index measured for 72 hrs in presence of ketoconazole; type: functional
Nakaseomyces glabratus [33] = test: Additive antifungal activity against Candida glabrata ATCC 2001 assessed as fractional inhibitory concentration index measured for 72 hrs in presence of posaconazole; type: functional
Candida albicans [34] = test: Synergistic antifungal activity against Candida albicans ATCC 64124 assessed as compound MIC measured after 48 hrs in presence of fluconazole by checkboard based microplate reader analysis; type: functional
Aspergillus terreus [35] = test: Antifungal activity against Aspergillus terreus ATCC MYA-3633 measured after 48 hrs by broth microdilution analysis; type: functional
Candida albicans [36] = test: Additive antifungal activity against Candida albicans ATCC 10231 assessed as fractional inhibitory concentration index measured for 72 hrs in presence of ketoconazole; type: functional
Candida albicans [37] = test: Antifungal activity against Candida albicans ATCC 90819 measured after 48 hrs by broth microdilution analysis; type: functional
Candida albicans [38] = test: Synergistic antifungal activity against Candida albicans ATCC 10231 assessed as compound MIC measured after 48 hrs in presence of voriconazole by checkboard based microplate reader analysis; type: functional
Candida albicans [39] = test: Synergistic antifungal activity against Candida albicans ATCC 10231 assessed as compound MIC measured after 48 hrs in presence of fluconazole by checkboard based microplate reader analysis; type: functional
Candida albicans [40] = test: Partial synergistic antifungal activity against Candida albicans ATCC 10231 assessed as fractional inhibitory concentration index measured for 72 hrs in presence of voriconazole; type: functional
Nakaseomyces glabratus [41] = test: Synergistic antifungal activity against Candida glabrata ATCC 2001 assessed as fractional inhibitory concentration index measured for 72 hrs in presence of posaconazole; type: functional
Candida albicans [42] = test: Additive antifungal activity against Candida albicans ATCC MYA-2876 assessed as fractional inhibitory concentration index measured for 72 hrs in presence of voriconazole; type: functional

COc1ccc(C(=O)CCCN2CCC(O)(c3ccc(Br)cc3)CC2)cc1
0.51: fractional inhibitory concentration index (FICI) (Nakaseomyces glabratus [41])
8 µg/mL: MIC (Candida albicans [2])
0.75: fractional inhibitory concentration index (FICI) (Candida albicans [40])
2: fractional inhibitory concentration index (FICI) (Candida albicans [1]) | fractional inhibitory concentration index (FICI) (Aspergillus terreus [4]) | fractional inhibitory concentration index (FICI) (Candida albicans [5]) | fractional inhibitory concentration index (FICI) (Candida albicans [7]) | fractional inhibitory concentration index (FICI) (Candida albicans [8]) | fractional inhibitory concentration index (FICI) (Candida albicans [14]) | fractional inhibitory concentration index (FICI) (Nakaseomyces glabratus [16]) | fractional inhibitory concentration index (FICI) (Candida albicans [23]) | fractional inhibitory concentration index (FICI) (Candida albicans [24]) | fractional inhibitory concentration index (FICI) (Candida albicans [25]) | fractional inhibitory concentration index (FICI) (Candida albicans [27]) | fractional inhibitory concentration index (FICI) (Candida albicans [29]) | fractional inhibitory concentration index (FICI) (Candida albicans [30]) | fractional inhibitory concentration index (FICI) (Candida albicans [31]) | fractional inhibitory concentration index (FICI) (Candida albicans [36]) | fractional inhibitory concentration index (FICI) (Candida albicans [42])
64 µg/mL: MIC (Candida albicans [17])
1.25: fractional inhibitory concentration index (FICI) (Candida albicans [28])
32 µg/mL: MIC (Candida albicans [38])
> 128 µg/mL: MIC (Candida albicans [6]) | MIC (Candida albicans [9]) | MIC (Candida albicans [10]) | MIC (Candida albicans [11]) | MIC (Candida albicans [12]) | MIC (Candida albicans [13]) | MIC (Candida albicans [15]) | MIC (Candida albicans [19]) | MIC (Candida albicans [20]) | MIC (Candida albicans [21]) | MIC (Nakaseomyces glabratus [22]) | MIC (Candida albicans [34]) | MIC (Aspergillus terreus [35]) | MIC (Candida albicans [37]) | MIC (Candida albicans [39])
128 µg/mL: MIC (Candida albicans [18])
0.5: fractional inhibitory concentration index (FICI) (Nakaseomyces glabratus [33])
16: Ratio (Candida albicans [3])
1: fractional inhibitory concentration index (FICI) (Candida albicans [32])
0.13: fractional inhibitory concentration index (FICI) (Candida albicans [26])
